Key:
[1] = molecular target: T1, soybean lipoxygenase (LOX) (Glycine max, UniProt P08170); test: LOX inhibition study in vitro; type: biochemical; settings: for inhibition at 100 µM: 1 × 10^−4 M
T1 construct: purchased Sigma-Aldrich
T1 sequence (P08170 1-839): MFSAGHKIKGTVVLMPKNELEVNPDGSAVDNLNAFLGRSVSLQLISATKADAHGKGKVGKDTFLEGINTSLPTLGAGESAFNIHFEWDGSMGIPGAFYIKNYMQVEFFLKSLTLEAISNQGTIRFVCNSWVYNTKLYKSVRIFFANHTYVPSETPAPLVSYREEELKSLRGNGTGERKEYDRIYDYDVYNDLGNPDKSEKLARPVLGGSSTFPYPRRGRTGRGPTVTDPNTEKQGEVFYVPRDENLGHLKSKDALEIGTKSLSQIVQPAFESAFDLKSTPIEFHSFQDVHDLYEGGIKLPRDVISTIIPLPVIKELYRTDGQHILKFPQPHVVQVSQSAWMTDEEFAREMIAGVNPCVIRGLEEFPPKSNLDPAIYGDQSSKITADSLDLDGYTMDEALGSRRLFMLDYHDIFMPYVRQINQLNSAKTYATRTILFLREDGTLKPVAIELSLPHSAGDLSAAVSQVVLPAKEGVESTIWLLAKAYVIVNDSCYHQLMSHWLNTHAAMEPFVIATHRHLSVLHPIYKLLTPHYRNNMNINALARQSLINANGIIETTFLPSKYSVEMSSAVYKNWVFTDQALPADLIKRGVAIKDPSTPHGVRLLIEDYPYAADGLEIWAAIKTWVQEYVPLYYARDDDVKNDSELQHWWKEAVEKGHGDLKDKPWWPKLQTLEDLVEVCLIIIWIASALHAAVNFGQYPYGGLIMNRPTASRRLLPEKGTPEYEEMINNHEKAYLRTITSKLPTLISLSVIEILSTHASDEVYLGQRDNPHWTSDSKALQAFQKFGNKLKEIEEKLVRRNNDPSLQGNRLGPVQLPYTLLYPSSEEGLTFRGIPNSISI
Experimental: LOX inhibitory assay in vitro was accomplished as described previously. The test compounds (stock solutions 10 mM in DMSO) were incubated at room temperature with sodium linoleate (c = 0.1 mM) and 0.2 mL of LOX enzyme solution (1/9 × 10^−4 m/V in saline). The conversion of sodium linoleate to 13-hydroperoxylinoleic acid was measured at 234 nm and compared with the reference inhibitor. Several concentrations were used for the IC50 determination.

[2] = Inhibition of linoleic acid peroxidation (AAPH-induced); settings: 5 × 10^−5 M
Experimental: For initiating the lipid peroxidation free radical AAPH was used. Final solution in the UV cuvette consisted of 10 μL linoleate sodium solution (c = 16 mM), 0.93 mL phosphate buffer (c = 0.05 M), pH 7.4, thermostated at 37 °C. 50 μL AAPH solution (c = 40 mM) and 10 μL of the tested compounds were added. The experiment was performed at 37 °C under air. The oxidation of linoleic acid sodium salt was monitored at 234 nm. The assays were repeated at least in triplicate and the standard deviation of absorbance was less than 10% of the mean. Trolox was used under the same experimental conditions as a reference compound.

[3] = Interaction with the stable radical DPPH (reducing ability)
Experimental: To a solution of DPPH in absolute ethanol the appropriate volume of the compounds (50 or 100 µM final concentrations) dissolved in DMSO was added. The absorbance was recorded at 517 nm after 20 and 60 min at room temperature. The experiments were repeated at least in triplicate and the standard deviation of absorbance was less than 10% of the mean. NDGA was used under the same experimental conditions as a reference compound.

[4] = system: NCI-H460 lung carcinoma cell line; test: Growth inhibition of tumor cell lines in vitro (MTT / cell counting); type: cell-based, human; settings: Homo sapiens, 72 h; NCI-H460, 3 days
Experimental: (§1) The experiments were carried out on a murine lymphocytic leukemia cell line (L1210) and five human tumor cell lines: CEM, HeLa, NCI-H460, SW 620 and MCF-7. The cells were cultured as monolayers and maintained in Dulbecco′s modified Eagle medium (DMEM) supplemented with 10% fetal bovine serum (FBS), 2 mM L-glutamine, 100 U/mL penicillin and 100 μg/mL streptomycin in a humidified atmosphere with 5% CO2 at 37 °C.
(§2) The growth inhibition activity of the compounds was assessed as described previously. The cell lines were inoculated onto a series of standard 96-well microtiter plates on day 0, at 1.5 × 10^4 cells/mL (SW 620, H460) to 2.5 × 10^4 cells/mL (MCF-7, CEM and L1210), depending on the growth of the tumor cell line. Test agents were then added in ten-fold dilutions (10^−8 to 10^−4 M) and the cell cultures were then incubated for 3–4 days with 5% CO2 at 37 °C. Working dilutions of the compounds were freshly prepared on the day of testing.
(§3) After 3 (MCF-7, SW 620, NCI-H460) or 4 days (CEM, L1210), the cell growth rate was evaluated first light microscopically, then by viable cell counting and/or by performing the MTT assay, which detects dehydrogenase activity in live, not dead, cells. The absorbance (A) was measured on a microplate reader at 570 nm. The absorbance is directly proportional to the number of living, metabolically active cells. […] If however, all of the tested concentrations produce PGs exceeding the respective reference level of effect (e.g., PG value of 50), then the highest tested concentration is assigned as the default value, which is preceded by a “>” sign. Minimum two individual experiments were carried out and each test point was performed in quadruplicate.

[5] = system: MCF-7 breast carcinoma cell line; test: as above; type: cell-based, human; settings: Homo sapiens, MCF7, 72 h; MCF-7, 3 days
Experimental: as §1, §2, §3

[6] = system: HeLa cervical carcinoma cell line; test: as above; type: cell-based; settings: Homo sapiens
Experimental: as §1, §2, §3

[7] = system: CEM acute lymphoblastic leukemia cell line; test: as above; type: cell-based; settings: Homo sapiens, 96 h, 4 days
Experimental: as §1, §2, §3

[8] = system: SW 620 colon carcinoma cell line; test: as above; type: cell-based; settings: Homo sapiens, 72 h; SW 620, 3 days
Experimental: as §1, §2, §3

[9] = system: L1210 murine lymphocytic leukemia cell line; test: as above; type: cell-based; settings: Mus musculus, 96 h; L1210, 4 days
Experimental: as §1, §2, §3

inhibition at 100 µM [1] | IC50 [4] | IC50 [5] | IC50 [6] | IC50 [7] | IC50 [8] | IC50 [9] | IC50 ([1]; values in parentheses in Table 3) | Structure (SMILES) | LP Inhibition (%) [2] | DPPH-reducing ability RA (%) ([3]; 1 × 10^−4 M, 20 min) | DPPH-reducing ability RA (%) ([3]; 1 × 10^−4 M, 60 min) | DPPH-reducing ability RA (%) ([3]; 5 × 10^−5 M, 20 min) | DPPH-reducing ability RA (%) ([3]; 5 × 10^−5 M, 60 min)
19% | > 1 µM | 24 ± 5 µM | 4 ± 0.9 µM | 27 ± 4 µM | 23 ± 9 µM | 52 ± 3 µM | – | COc1cc(NC(C)CCCNC(=O)/C=C/c2ccccc2)c2ncccc2c1 (stereo not shown) [3a, (E)-N-(4-(6-Methoxyquinolin-8-ylamino)pentyl)-3-phenylacrylamide] | 44% | 53% | 33% | 16% | 20%
14% | > 100 µM | 9.4 ± 0.2 µM | 106 ± 26 µM | 55 ± 6 µM | > 100 µM | 51 µM | – | COc1cc(NC(C)CCCNC(=O)/C(C)=C/c2ccccc2)c2ncccc2c1 (stereo not shown) [3b, (E)-N-(4-(6-Methoxyquinolin-8-ylamino)pentyl)-2-methyl-3-phenylacrylamide] | 79% | 5% | 37% | 2% | 2%
45% | > 100 µM | 20 ± 3 µM | > 125 µM | 61 ± 30 µM | > 100 µM | 106 ± 6 µM | – | COc1ccc(/C=C/C(=O)NCCCC(C)Nc2cc(OC)cc3cccnc23)cc1 (stereo not shown) [3c, (E)-3-(4-Methoxyphenyl)-N-(4-(6-methoxyquinolin-8-ylamino)pentyl)acrylamide] | 70% | 40% | 43% | 22% | 27%
43% | > 100 µM | 16 ± 0.6 µM | > 125 µM | 90 ± 45 µM | > 100 µM | 100 ± 34 µM | – | COc1cc(NC(C)CCCNC(=O)/C=C/c2ccc(OC)c(OC)c2)c2ncccc2c1 (stereo not shown) [3d, (E)-3-(3,4-Dimethoxyphenyl)-N-(4-(6-methoxyquinolin-8-ylamino)pentyl)acrylamide] | 73% | 34% | 31% | – | –
26% | > 100 µM | 8.7 ± 0.3 µM | > 125 µM | 55 ± 16 µM | > 100 µM | 22 ± 2 µM | – | COc1cc(NC(C)CCCNC(=O)/C=C/c2cc(OC)c(OC)c(OC)c2)c2ncccc2c1 (stereo not shown) [3e, (E)-N-(4-(6-Methoxyquinolin-8-ylamino)pentyl)-3-(3,4,5-trimethoxyphenyl)acrylamide] | 47% | 16% | 23% | 4% | 9%
34% | > 100 µM | 6.9 ± 1.3 µM | 72 ± 57 µM | 37 ± 27 µM | > 100 µM | 59 ± 2 µM | – | COc1cc(NC(C)CCCNC(=O)/C=C/c2ccc3c(c2)OCO3)c2ncccc2c1 (stereo not shown) [3f, (E)-3-(Benzo[d][1,3]dioxo-5-yl)-N-(4-(6-methoxyquinolin-8-ylamino)pentyl)acrylamide] | 87% | 11% | 33% | – | –
17% | > 100 µM | 4.3 ± 1 µM | 36 ± 16 µM | 20 ± 2 µM | > 100 µM | 63 ± 2 µM | – | COc1cc(NC(C)CCCNC(=O)/C=C/c2ccc(Cl)cc2)c2ncccc2c1 (stereo not shown) [3g, (E)-3-(4-Chlorophenyl)-N-(4-(6-methoxyquinolin-8-ylamino)pentyl)acrylamide] | 46% | 27% | 46% | – | –
10% | > 100 µM | 1.1 ± 0.6 µM | 2.1 ± 2.1 µM | 18 ± 15 µM | 0.3 ± 0.1 µM | 66 ± 5 µM | – | COc1cc(NC(C)CCCNC(=O)/C=C/c2ccccc2F)c2ncccc2c1 (stereo not shown) [3h, (E)-3-(2-Fluorophenyl)-N-(4-(6-methoxyquinolin-8-ylamino)pentyl)acrylamide] | 66% | – | – | – | –
19% | > 100 µM | 11 ± 2 µM | 112 ± 11 µM | 41 ± 15 µM | 64 ± 41 µM | 68 ± 2 µM | – | COc1cc(NC(C)CCCNC(=O)/C=C/c2cccc(C(F)(F)F)c2)c2ncccc2c1 (stereo not shown) [3i] | 32% | – | 8% | – | 13%
– | > 100 µM | 3.9 ± 0.6 µM | 25 ± 6 µM | 14 ± 1 µM | > 100 µM | 50 ± 18 µM | 50 µM | COc1cc(NC(C)CCCNC(=O)/C=C/c2ccc(C(F)(F)F)cc2)c2ncccc2c1 (stereo not shown) [3j, (E)-N-(4-(6-Methoxyquinolin-8-ylamino)pentyl)-3-(4-(trifluoromethyl)phenyl)acrylamide] | 77% | 38% | 40% | – | –
43% | > 100 µM | 2.6 ± 0.5 µM | 18 ± 1 µM | 68 ± 29 µM | > 100 µM | 92 ± 24 µM | – | COc1cc(NC(C)CCCNC(=O)/C=C/c2cc(C(F)(F)F)cc(C(F)(F)F)c2)c2ncccc2c1 (stereo not shown) [3k, (E)-3-(3,5-Bis(trifluoromethyl)phenyl)-N-[4-(6-methoxyquinolin-8-ylamino)pentyl]acrylamide] | 65% | – | 50% | – | –
36% | > 100 µM | 2.5 ± 1.9 µM | 12 ± 2 µM | 3 ± 0.5 µM | > 100 µM | 7 ± 3.1 µM | – | COc1cc(NC(C)CCCNC(=O)NNC(=O)/C=C/c2ccccc2)c2ncccc2c1 (stereo not shown) [7a, (E)-1-Cinnamoyl-4-(4-(6-methoxyquinolin-8-ylamino)pentyl)semicarbazide] | 83% | 39% | 100% | 49% | 100%

Source: publication PMC6273687, “Design, Synthesis and Biological Evaluation of Novel Primaquine-Cinnamic Acid Conjugates of the Amide and Acylsemicarbazide Type” (Molecules, 2016)
